The record followed here is patent US20080234385A1, “Method For Inhibiting Tnf-Alpha” (CARITAS ST. ELIZABETH'S MEDICAL CENTER, priority 2005, published 2008).

The structures appear in SMILES notation. “Also recorded” adds a separate entry of the source.

The subject of this assay is LPS-stimulated TNF-α production. Briefly: LPS-stimulated TNF-α production by THP-1-derived monocytes (ELISA). Format: cell-based, human. Conditions: differentiated THP-1 cells, endotoxin 10 ng/ml, 24 hours; for effect on LPS-stimulated TNF-α production/synthesis (in words): rising concentrations. The method, then:
The human promonocytic THP-1 cell line (American Type Culture Collection, Manassas, Va.) was maintained in suspension culture at 0.25×10^6 cells/ml in RPMI-1640 medium supplemented with 2 mM L-glutamine, 10% fetal bovine serum and 0.05 mM 2-mercaptoethanol in a humidified atmosphere of 5% CO2 in air at 37° C. Differentiation to monocytes (0.25×10^6 cells/ml) was induced by incubating cells with trans-retinoic acid (1 μM), 1.25 dihydroxy cholecalciferol (0.1 μM) and interferon-γ (0.01 mg/l) (Sigma, St. Louis, Mo.). After 3 days, cells were detached using trypsin-EDTA, washed in PBS, and 1×10^6 cells were used for each experimental condition.
Differentiated THP-1 cells were co-incubated with 10 ng/ml of purified Escherichia coli endotoxin (serotype O55: B5, Sigma Chemical Co.) and rising concentrations (0-400 μM) of either melatonin, N-acetyldopamine (NAD) or N-methyldopamine (NMD) or 3-hydroxy-4-methoxy-dopamine (HMP) (Sigma) in RPMI-1640 cell culture medium at 37° C. in a humidified atmosphere supplemented with 5% CO2. After 24-hour incubation, cell supematants were harvested, and TNF-α was measured by a sandwich enzyme linked immunosorbent assay (ELISA), according to the manufacturer's instructions (Quantikine®, R & D systems, Minneapolis, Minn., USA). The lower limit of detection for TNF-α was 1.6 pg/ml. The average intra-assay coefficient of variation for TNF-α was 5%.
(In an ELISA, binding on a coated surface is turned into a signal by an enzyme label.)

In the case of `CNCCc1ccc(O)c(O)c1` [NMD, N-methyldopamine], the “effect on LPS-stimulated TNF-α production/synthesis (in words)” value is “suppress LPS-stimulated TNF-α synthesis by monocytic cells in a dose-dependent manner”.

As for `CC(=O)NCCc1ccc(O)c(O)c1` [NAD, N-acetyldopamine], the “effect on LPS-stimulated TNF-α production/synthesis (in words)” value is “marked decrease in LPS-stimulated TNF-α production, which was dose dependent; also recorded: suppress LPS-stimulated TNF-α synthesis by monocytic cells in a dose-dependent manner”. Further, the “potency in blocking TNF-α production compared with NMD, HMP and melatonin” value (low-dose (1-20 μM, FIG. 1)) is on record as “more potent in blocking TNF-α production”.

Consider `CC(=O)NCCc1c[nH]c2ccc(O)cc12` [NAS, N-acetyl-serotonin, reference compound], for which the “effect on LPS-stimulated TNF-α production/synthesis (in words)” value was “marked decrease in LPS-stimulated TNF-α production, which was dose dependent”.

As to `COc1ccc2[nH]cc(CCNC(C)=O)c2c1` [melatonin, reference compound], the “effect on LPS-stimulated TNF-α production/synthesis (in words)” value was “marked decrease in LPS-stimulated TNF-α production, which was dose dependent”.
